Measurements: patent US20020110808A1, “Toxicant-induced differential gene expression” (priority 2000, published 2002)

Key:
HepG2 cells [1] = assay: Quantitative RT-PCR (TaqMan); type: cell-based, human
Description: Primers and probes were designed using Primer Express software (Perkin-Elmer). TaqMan probes (Perkin-Elmer) were synthesized with reporter dye 6FAM at the 5′ end and quencher TAMRA at the 3′ end. RNA template concentrations were determined by absorbance at 260 nm. Reactions were performed as described […], using 2.5 ng RNA, 300 nM each PCR primer, and 150 nM Taqman probes. Control reactions were set up with reverse transcriptase or template omitted. Reactions were run on an ABI 7700 instrument (Perkin-Elmer) using the following cycling conditions: reverse transcription at 48° C. for 30 min; inactivation of reverse transcriptase at 95° C. for 10 min; 40 cycles of denaturation at 94° C. for 15 sec and extension at 60° C. for 1 min. Changes in expression were calculated from the displacement of the amplification curve in the treated sample relative to the control.

HepG2 cells [2] = assay: Dot blot array expression assay; settings: for Number of 27 unconfirmed or non-matching clones showing an expression change: two-fold threshold
Description: The quality of the PCR reactions was assessed by agarose gel electrophoresis. Human genomic DNA (Clontech) and PCR products were robotically dotted in 100 nl aliquots onto positively-charged nylon membranes using the BioDot instrument (Cartesian Technologies, Inc.). After uv-crosslinking, the membranes were rinsed in 2× SSC and allowed to air-dry. Prior to addition of labeled cDNA probes, membranes were washed in boiling 1% SDS, rinsed with 6× SSC, and incubated in 5 mL of 42° C. Microhyb solution (Research Genetics) for 2 hr. Ten minutes prior to addition of the probes, the Microhyb solution was replaced with an equal amount of fresh 42° C. Microhyb solution containing denatured human Cot-1 DNA (Gibco BRL) and poly(dA) primer (Research Genetics) (both at final concentrations of 1 ng/μl).
For each reverse transcription reaction, 2 μg of mRNA was incubated with oligo(dT) primer (200 ng/μl) at 70° C. for 10 minutes. Tubes were chilled and spun briefly. The following reagents (with the final concentrations in parentheses) were added: first strand buffer (1×), DTT (10 mM), dNTP mix (1 mM each of dATP, dGTP, dTTP), [α-^33P]dCTP (3.3 μCi/μl) and Superscript II Reverse Transcriptase (10 units/μL). The samples were kept at 37° C. for 1.5 hr. Unincorporated nucleotides were removed by spinning the reaction mixture through a G-50 column. […] Probe quality was assessed by electrophoresis on a 10% denaturing polyacrylamide minigel. Denatured probes were added directly to the Microhyb solution and hybridized overnight at 42° C. Membranes were washed twice under each of the following conditions: (1) 2× SSC/0.1% SDS at room temperature, 5 min; (2) 0.2× SSC/0.1% SDS at room temperature, 5 min; (3) 0.2× SSC/0.1% SDS at 42° C., 15 min, (4) 0.1× SSC/0.1% SDS at 68° C., 15 min. Membranes were then rinsed briefly in 2× SSC at room temperature, covered with Saran wrap, and exposed to storage phoshpor screens. After three days, screens were scanned using a Storm phosphorimager (Molecular Dynamics). Images were analyzed using ImageQuant software (Molecular Dynamics).
We employed a rapid dot blot assay as a secondary screen for gene expression changes. We tested each of the unique clones against each of the three treatments. […] For these clones, the dot blot assay functioned not as a confirmation assay but as an initial screen for differential expression. Dot blots were prepared by robotically arraying subclone-derived PCR products in quadruplicate onto positively charged nylon membranes. […] In general, each dot consisted of over 80 ng of PCR product, as estimated by inspection of the PCR reactions run on agarose gels. This high quantity of DNA ensured that saturation of spots, with consequent loss of quantitation, would not occur. Spots of genomic DNA were included on each filter to allow normalization between control and treated sample intensities.

[3] = 24 hr, 20 mM APAP, 16 mM CAF, 100 mM THI

For CC(=O)Nc1ccc(O)cc1 [acetaminophen], the “TTF-1 interacting peptide 21 down-regulation by RT-PCR” value (HepG2 cells [1]; acetaminophen, 12 hr) was about 2 fold and the “Number of 27 unconfirmed or non-matching clones showing an expression change” value (HepG2 cells [2]; 24 hr) was 7.

CC(=N)S [thioacetamide] was tested, and the “Expression ratio (treated/control), RT-PCR: MT-1G (H53340)” value (HepG2 cells [1]; Thioacetamide (24 hr)) was 3.1, the “Expression ratio (treated/control), RT-PCR: MT-2 (R16596)” value (HepG2 cells [1]; Thioacetamide (24 hr)) was 7.4 and the “Expression ratio (treated/control), RT-PCR: MT-1H (H77766)” value (HepG2 cells [1]; Thioacetamide (24 hr), not detectable in control samples) was over 1000. The “Fold change, down-regulation: EST (AA283846), clone 90-1” value (HepG2 cells [2]; 24 hr treatments) was 7.7 fold, the “Fold change, down-regulation: EST (AA805555), clone 83” value (HepG2 cells [2]; 24 hr treatments) was 11.1 fold and the “Fold change, down-regulation: EST (AI310515), clone 32-2” value (HepG2 cells [2]; 24 hr treatments) was 9.1 fold. For the same compound, the “Fold change, down-regulation: Lactate dehydrogenase A, clone A24-1” value (HepG2 cells [2]; 24 hr treatments) was 5.0 fold, the “Fold change, down-regulation: Pyruvate dehydrogenase E1-beta subunit, clone A123” value (HepG2 cells [2]; 24 hr treatments) was 12.5 fold and the “Fold change, down-regulation: Transforming growth factor-beta type III receptor, clone A155-6” value (HepG2 cells [2]; 24 hr treatments) was 3.0 fold. For the same compound, the “Fold change, up-regulation: Activating transcription factor 4, clone A108D” value (HepG2 cells [2]; 24 hr treatments) was 3.8 fold, the “Fold change, up-regulation: EST (N22016), clone AI24-6” value (HepG2 cells [2]; 24 hr treatments) was “up” and the “Fold change, up-regulation: EST, similar to ubiquitin hydrolase, clone A130-3” value (HepG2 cells [2]; 24 hr treatments) was “up”. The “Dot blot expression ratio (treated/control): 90-kDa heat-shock protein, clone 23” value (HepG2 cells [2]; [3]) was 0.96 n, the “Dot blot expression ratio (treated/control): ABC transporter, clone 31-4” value (HepG2 cells [2]; [3]) was 0.28 and the “Dot blot expression ratio (treated/control): AH antigen, clone A136-1” value (HepG2 cells [2]; [3]) was 0.00. For the same compound, the “Dot blot expression ratio (treated/control): Activating transcription factor 4, clone A108D” value (HepG2 cells [2]; [3]) was 3.77, the “Dot blot expression ratio (treated/control): Apolipoprotein B-100, clone A124-1” value (HepG2 cells [2]; [3]) was 0.76 and the “Dot blot expression ratio (treated/control): Atopy related autoantigen CALC, clone A182-1” value (HepG2 cells [2]; [3]) was 0.66. The “Dot blot expression ratio (treated/control): Centromere protein E (CENPE), clone A187-5” value (HepG2 cells [2]; [3]) was 0.65, the “Dot blot expression ratio (treated/control): Centromere protein F (400 kD) (CENPF kinetochore protein), clone A136” value (HepG2 cells [2]; [3]) was 1.98 and the “Dot blot expression ratio (treated/control): Cu/Zn superoxide dismutase (SOD), clone A94-4” value (HepG2 cells [2]; [3]) was 0.91. The “Dot blot expression ratio (treated/control): DB1, clone A176-3” value (HepG2 cells [2]; [3]) was 0.36, the “Dot blot expression ratio (treated/control): DNA topoisomerase II binding protein, clone A172” value (HepG2 cells [2]; [3]) was 0.49 and the “Dot blot expression ratio (treated/control): E1B 19K/Bcl-2-binding protein Nip3, clone 81-6” value (HepG2 cells [2]; [3]) was 0.23 c. For the same compound, the “Dot blot expression ratio (treated/control): EST (AA283846), clone 90-1” value (HepG2 cells [2]; [3]) was 0.13 c, the “Dot blot expression ratio (treated/control): EST (AA430551), clone A160-5” value (HepG2 cells [2]; [3]) was 0.17 and the “Dot blot expression ratio (treated/control): EST (AA581887), clone 102-2” value (HepG2 cells [2]; [3]) was 1.80 n. For the same compound, the “Dot blot expression ratio (treated/control): EST (AA581887), clone A102-1” value (HepG2 cells [2]; [3]) was 1.78 n, the “Dot blot expression ratio (treated/control): EST (AA805555), clone 83” value (HepG2 cells [2]; [3]) was 0.09 c and the “Dot blot expression ratio (treated/control): EST (AC007400), clone A95-1” value (HepG2 cells [2]; [3]) was 1.07. The “Dot blot expression ratio (treated/control): EST (AI049999), clone A104-5” value (HepG2 cells [2]; [3]) was 0.89, the “Dot blot expression ratio (treated/control): EST (AI310515), clone 32-2” value (HepG2 cells [2]; [3]) was 0.11 c and the “Dot blot expression ratio (treated/control): EST (N22016), clone A124-6” value (HepG2 cells [2]; [3]) was “up”. For the same compound, the “Dot blot expression ratio (treated/control): EST (N26592), clone 101” value (HepG2 cells [2]; [3]) was 0.26 c, the “Dot blot expression ratio (treated/control): EST (N39662), clone A99-1” value (HepG2 cells [2]; [3]) was 0.50 and the “Dot blot expression ratio (treated/control): EST (W44772), clone 87” value (HepG2 cells [2]; [3]) was 1.11 n. For the same compound, the “Dot blot expression ratio (treated/control): EST, bithoraxoid-like protein, clone A183-1” value (HepG2 cells [2]; [3]) was 0.42, the “Dot blot expression ratio (treated/control): EST, similar to Long-chain acyl-coenzyme A synthetase, clone A105-7” value (HepG2 cells [2]; [3]) was 0.90 and the “Dot blot expression ratio (treated/control): EST, similar to Ubiquinol cytochrome C reductase core protein 2, clone 93” value (HepG2 cells [2]; [3]) was 0.38 c. For the same compound, the “Dot blot expression ratio (treated/control): EST, similar to arachidonate 15-lipoxygenase, clone 84” value (HepG2 cells [2]; [3]) was 0.75 n, the “Dot blot expression ratio (treated/control): EST, similar to ubiquitin hydrolase, clone A130-3” value (HepG2 cells [2]; [3]) was “up” and the “Dot blot expression ratio (treated/control): Esterase D/formylglutathione hydrolase, clone 24” value (HepG2 cells [2]; [3]) was 0.31 c. For the same compound, the “Dot blot expression ratio (treated/control): G1 to S phasetransition 1 (GSPT1), clone 103-2” value (HepG2 cells [2]; [3]) was 1.57 n, the “Dot blot expression ratio (treated/control): Glucose transporter pseudogene, clone 23-1” value (HepG2 cells [2]; [3]) was 0.34 and the “Dot blot expression ratio (treated/control): High mobility group 2 protein (HMG-2), clone A111-8” value (HepG2 cells [2]; [3]) was 1.12. For the same compound, the “Dot blot expression ratio (treated/control): Human Alu-Sc subfamily consensus sequence, clone A96-4” value (HepG2 cells [2]; [3]) was 0.84, the “Dot blot expression ratio (treated/control): Human transposon-like element mRNA, clone A135-3” value (HepG2 cells [2]; [3]) was 0.59 and the “Dot blot expression ratio (treated/control): Interleukin 6 signal transducer (gp130, oncostatin M receptor), clone 65-1” value (HepG2 cells [2]; [3]) was 0.96 n. The “Dot blot expression ratio (treated/control): Ku autoimmune antigen, clone 27-2” value (HepG2 cells [2]; [3]) was 0.47 c, the “Dot blot expression ratio (treated/control): Lactate dehydrogenase A, clone A24-1” value (HepG2 cells [2]; [3]) was 0.20 c and the “Dot blot expression ratio (treated/control): Lipoprotein-associated coagulation inhibitor, clone A94-3” value (HepG2 cells [2]; [3]) was 0.27 c. The “Dot blot expression ratio (treated/control): Liver microsomal UDP-glucuronosyltransferase (UDPGT), clone A128-7” value (HepG2 cells [2]; [3]) was 0.70, the “Dot blot expression ratio (treated/control): Lsm5 protein, clone A115-5” value (HepG2 cells [2]; [3]) was 0.39 and the “Dot blot expression ratio (treated/control): MEGF9, clone 74” value (HepG2 cells [2]; [3]) was 0.96 n. The “Dot blot expression ratio (treated/control): Myristoyl CoA:protein N-myristoyltransferase, clone 82” value (HepG2 cells [2]; [3]) was 0.41, the “Dot blot expression ratio (treated/control): NADH dehydrogenase subunit 2, clone A131-1” value (HepG2 cells [2]; [3]) was 1.45 and the “Dot blot expression ratio (treated/control): Nucleosome assembly protein 1-1ike 1 (NAP1L1), clone 20-2” value (HepG2 cells [2]; [3]) was 0.92 n. The “Dot blot expression ratio (treated/control): PPP1R5 gene, clone 30-5” value (HepG2 cells [2]; [3]) was 0.17 c, the “Dot blot expression ratio (treated/control): T-complex polypeptide 1, clone 21-2” value (HepG2 cells [2]; [3]) was 1.03 and the “Dot blot expression ratio (treated/control): Transforming growth factor-beta type III receptor, clone A155-6” value (HepG2 cells [2]; [3]) was 0.33. For the same compound, the “Dot blot expression ratio (treated/control): cAMP-responsive enhancer binding protein, alt. spliced (CREB327), clone 98” value (HepG2 cells [2]; [3]) was 0.70 n, the “Dot blot expression ratio (treated/control): procollagen-lysine 2-oxoglutarate 5-dioxygenase 2, clone A185” value (HepG2 cells [2]; [3]) was 0.36 and the “Dot blot expression ratio (treated/control): pyruvate dehydrogenase El-beta subunit, clone A123” value (HepG2 cells [2]; [3]) was 0.08. The “Number of 27 unconfirmed or non-matching clones showing an expression change” value (HepG2 cells [2]; 24 hr) was 9.
